Measured values taken from patent US12630507B2, “Pyrrolidine amide derivative salt and use thereof” (SUNSHINE LAKE PHARMA CO., LTD., priority 2020, dated 2026).

What was measured:
[1] = Pharmacokinetics test, oral capsules, plasma concentration by LC-MS/MS; type: in vivo; settings: male Beagle dogs, oral capsule, 5 mg/kg
Description: The test samples (that is, the salt of the present invention or its crystal form, or the compound represented by formula (I) of the present invention) were filled into capsules for oral administration.
Three […] male Beagle dogs were taken orally administered capsules containing the test sample at a dose of 5 mg/kg, and blood was collected at time points of 0.25, 0.5, 1.0, 2.0, 5.0, 7.0 and 24 h. Standard curve was plotted based on concentrations of the samples in a suitable range, the concentration of the test sample in the plasma sample was measured and quantified by AB SCIEX API5500 LC-MS/MS at MRM mode. Pharmacokinetic parameters were calculated according to drug concentration-time curve using a noncompartmental method by WinNonLin 6.3 software.

MAO-B = biological target: T1, MAO-B (Homo sapiens, UniProt P27338); settings: as disclosed in WO 2019170115 A1; cited from earlier work
T1 sequence (P27338 1-520): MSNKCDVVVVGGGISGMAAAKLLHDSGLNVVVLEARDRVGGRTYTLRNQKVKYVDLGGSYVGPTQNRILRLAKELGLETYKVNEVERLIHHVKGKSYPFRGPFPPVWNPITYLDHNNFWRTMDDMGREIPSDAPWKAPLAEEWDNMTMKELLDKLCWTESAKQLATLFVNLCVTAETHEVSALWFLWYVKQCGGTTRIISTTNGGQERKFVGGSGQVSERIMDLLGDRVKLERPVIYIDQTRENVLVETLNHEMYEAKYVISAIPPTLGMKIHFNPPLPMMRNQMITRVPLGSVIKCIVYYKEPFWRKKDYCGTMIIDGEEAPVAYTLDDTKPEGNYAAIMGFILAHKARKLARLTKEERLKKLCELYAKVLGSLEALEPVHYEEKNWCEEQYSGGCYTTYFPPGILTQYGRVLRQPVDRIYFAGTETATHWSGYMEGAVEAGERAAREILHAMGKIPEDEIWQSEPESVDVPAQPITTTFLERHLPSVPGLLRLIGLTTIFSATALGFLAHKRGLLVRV

[2] = Solubility test in water by HPLC; type: physicochemical; settings: for Concentration of compound represented by formula (I) in saturated aqueous solution: ultrapure water, 37 °C, shaking for 24 h, filtrate by HPLC
Description: The solubility of the present invention was determined using an Agilent 1200 High Performance Liquid Chromatograph DAD/VWD detector with an Agilent XDB-C18 model (4.6×50 mm, 5 μm). Detection wavelength was 266 nm, flow rate was 1.0 mL/min, the column temperature was 35° C., mobile phase A: acetonitrile/0.01 M ammonium acetate=[…] (V/V), analysis methods: acetonitrile/mobile phase A=70/30 (V/V), running time was 10 minutes.
The test samples were placed in organic ultrapure water at 37 O(C to prepare a supersaturated solution. After shaking for 24 h, the mixture was filtered with an aqueous filter membrane to obtain the filtrate, and the solubility of the target sample in water was detected by HPLC. Results are as shown in Table 5.

[3] = Stability test (high temperature, high humidity, light); type: physicochemical; settings: for Outward (appearance): cell wraps r9-r11: Off-white solid
Description: • (1) High temperature test: a batch of the test samples were taken into the flat weighing bottles, spread into a thin layer with a thickness of ≤5 mm. The above weighing bottles were stored at 40° C.±2° C./75%±5% RH and 60° C.±2° C./75% f 5% RH for 30 days in an incubator. On the 5th, 10th, and 30th days, samples were taken for detection according to the key stability inspection items: the color change of the sample was observed, the purity of the sample was determined by HPLC. • (2) High humidity test: a batch of the test samples were taken into the flat weighing bottles, spread into a thin layer with a thickness of ≤5 mm, and stored for 30 days at 25° C., RH 75%±5% or RH 90%±5%. On the 5th, 10th, and 30th days, samples were taken for detection according to the key stability inspection items: the color change of the sample was observed, the purity of the sample was determined by HPLC. • (3) Light test: a batch of the test samples were taken into the flat weighing bottles, spread into a thin layer of ≤5 mm thick, and placed in a light box (with an ultraviolet lamp) with an open mouth. The test samples were stored under the condition of illuminance of 4500±500 lx and ultraviolet light ≥0.7 w·h/m^2 for 30 days. On the 5th, 10th, and 30th days, samples were taken for detection according to the key stability inspection items: the color change of the sample was observed, the purity of the sample was determined by HPLC.

[4] = Hygroscopicity test (weight gain, 25° C., saturated ammonium chloride desiccator, 24 hours); type: physicochemical
Description: • 1) A dry stoppered glass weighing bottle (50 mm in outer diameter, 15 mm in height) was placed in a constant temperature desiccator (the lower part was placed in a saturated ammonium chloride solution) at 25° C.±1° C. the day before, and accurately weighed (m1). • 2) An appropriate amount of the test sample was taken and spread in the above weighing bottle. The thickness of the test sample was generally about 1 mm, and it was precisely weighed (m2). • 3) The weighing bottle was opened and placed together with the bottle cap under the above constant temperature and humidity conditions for 24 hours. • 4) The weighing bottle was closed with the bottle cap, and accurately weighed (m3).

[5] = High humidity (25° C., RH 75% ± 5%), 5 days
[6] = High humidity (25° C., RH 75% ± 5%), 10 days
[7] = High humidity (25° C., RH 75% ± 5%), 30 days
[8] = High humidity (25° C., RH 90% ± 5%), 5 days
[9] = High humidity (25° C., RH 90% ± 5%), 10 days
[10] = High humidity (25° C., RH 90% ± 5%), 30 days
[11] = High temperature (40° C., RH 75% ± 5%), 5 days
[12] = High temperature (40° C., RH 75% ± 5%), 10 days
[13] = High temperature (40° C., RH 75% ± 5%), 30 days
[14] = High temperature (60° C., RH 75% ± 5%), 5 days
[15] = High temperature (60° C., RH 75% ± 5%), 10 days
[16] = High temperature (60° C., RH 75% ± 5%), 30 days
[17] = Light (4500±500 lx, ultraviolet), 5 days
[18] = Light (4500±500 lx, ultraviolet), 10 days
[19] = Light (4500±500 lx, ultraviolet), 30 days
[20] = 25° C.±1° C., saturated ammonium chloride solution, 24 hours

NC(=O)[C@@H]1C[C@H](F)CN1Cc1ccc(OCc2cccc(F)c2)cc1 [Compound represented by formula (I), (2S,4S)-4-fluoro-1-(4-(3-fluorobenzyloxy)benzyl)pyrrolidine-2-carboxamide]
AUClast [1]: 548 ng·h/mL
Cmax [1]: 0.256 µg/mL
Tmax [1]: 0.8 h
Inhibitory effect on the activity of MAO-B (MAO-B): good inhibitory effect
Water solubility (in words) [2]: poor water solubility
Concentration of compound represented by formula (I) in saturated aqueous solution [2]: 11.40 µg/mL

NC(=O)[C@@H]1C[C@H](F)CN1Cc1ccc(OCc2cccc(F)c2)cc1 [Example 2, (2S,4S)-4-fluoro-1-(4-(3-fluorobenzyloxy)benzyl)pyrrolidine-2-carboxamide]
Purity ([3]; 0 day): 99.74%
Outward (appearance) ([3]; 0 day): Off-
Purity [3, 5]: 99.80%
Outward (appearance) [3, 5]: Off-
Purity [3, 6]: 99.69%
Outward (appearance) [3, 6]: Off-
Purity [3, 7]: 99.72%
Outward (appearance) [3, 7]: Off-
Purity [3, 8]: 99.80%
Outward (appearance) [3, 8]: Off-
Purity [3, 9]: 99.69%
Outward (appearance) [3, 9]: Off-
Purity [3, 10]: 99.73%
Outward (appearance) [3, 10]: Off-
Purity [3, 11]: 99.74%
Outward (appearance) [3, 11]: Off-
Purity [3, 12]: 99.70%
Outward (appearance) [3, 12]: Off-
Purity [3, 13]: 99.68%
Outward (appearance) [3, 13]: Off-
Purity [3, 14]: 99.72%
Outward (appearance) [3, 14]: Off-
Purity [3, 15]: 99.64%
Outward (appearance) [3, 15]: Off-
Purity [3, 16]: 99.68%
Outward (appearance) [3, 16]: Off-
Purity [3, 17]: 99.70%
Outward (appearance) [3, 17]: Off-
Purity [3, 18]: 99.64%
Outward (appearance) [3, 18]: Off-
Purity [3, 19]: 99.64%
Outward (appearance) [3, 19]: Off-
Change of appearance and purity ([3]; conditions of high temperature, high humidity and light, up to 30 days): no obvious change
AUClast [1]: 939 ng·h/mL
Cmax [1]: 0.415 µg/mL
Tmax [1]: 1 h
Hygroscopicity [4]: no or almost no hygroscopicity
Conclusion (hygroscopicity feature) [4, 20]: No or almost none
Hygroscopicity gain [4, 20]: 0.12%
Concentration of compound represented by formula (I) in saturated aqueous solution [2]: 21161.79 µg/mL

NC(=O)[C@@H]1C[C@H](F)CN1Cc1ccc(OCc2cccc(F)c2)cc1 [Example 8, (2S,4S)-4-fluoro-1-(4-(3-fluorobenzyloxy)benzyl)pyrrolidine-2-carboxamide]
AUClast [1]: 378 ng·h/mL
Cmax [1]: 0.143 µg/mL
Tmax [1]: 0.7 h
Concentration of compound represented by formula (I) in saturated aqueous solution [2]: 4719.01 µg/mL

NC(=O)[C@@H]1C[C@H](F)CN1Cc1ccc(OCc2cccc(F)c2)cc1 [Example 9, (2S,4S)-4-fluoro-1-(4-(3-fluorobenzyloxy)benzyl)pyrrolidine-2-carboxamide]
AUClast [1]: 450 ng·h/mL
Cmax [1]: 0.151 µg/mL
Tmax [1]: 3.4 h
Concentration of compound represented by formula (I) in saturated aqueous solution [2]: 575.35 µg/mL

NC(=O)[C@@H]1C[C@H](F)CN1Cc1ccc(OCc2cccc(F)c2)cc1 [Example 10, (2S,4S)-4-fluoro-1-(4-(3-fluorobenzyloxy)benzyl)pyrrolidine-2-carboxamide]
AUClast [1]: 470 ng·h/mL
Cmax [1]: 0.162 µg/mL
Tmax [1]: 2.2 h
Concentration of compound represented by formula (I) in saturated aqueous solution [2]: 1571.18 µg/mL
